Earlier results on two compounds are cited in patent publication US11980685B1, “Liquid pharmaceutical formulations of tafamidis” (TaP Pharmaceuticals, AG, priority 2022, dated 2024).

A word on the Solubility: it is how much of the substance goes into solution per volume.

≈ marks a conversion by molar mass, not a printed value. Where two headings read alike, the source gives them in different places. Some results are limits rather than exact numbers.

The conditions of data set [1]: 20 mg in 3.0 mL, equilibrated 1 h, UHPLC.

As to `O=C(O)c1ccc2nc(-c3cc(Cl)cc(Cl)c3)oc2c1` [Tafamidis, 2-(3,5-dichlorophenyl)-1,3-benzoxazole-6-carboxylic acid], the “Solubility” value was <2 µg/mL (pH 2.6, 0.02M Acetate-phosphate buffer); <2 µg/mL (pH 5.3, 0.02M Acetate-phosphate buffer); 2 µg/mL (≈ 6.49 µM) (pH 6.3, 0.02M Acetate-phosphate buffer); 15.8 µg/mL (≈ 51.3 µM) (pH 7.0, 0.02M Acetate-phosphate buffer); 17.5 µg/mL (≈ 56.8 µM) (pH 7.6, 0.02M Acetate-phosphate buffer as printed); 72.8 µg/mL (≈ 236 µM) (pH 7.8, 0.02M Acetate-phosphate buffer). Under “pH 8.0, 0.02M Acetate-phosphate buffer”, the “Solubility” value was 140 µg/mL (≈ 454 µM). For the same compound, under “statement of the NDA 212161 applicant on Table F”, the “Solubility classification per the BCS criteria” value is “poorly soluble drug substance”.
Consider `O=C(O)c1ccc2nc(-c3cc(Cl)cc(Cl)c3)oc2c1` [′441 patent's tafamidis crystal form 1], for which the “Concentration of tafamidis in saturated solution (solubility)” value in data set [1] (FaSSIF) was 9.0 µg/mL; in data set [1] (FeSSIF) it was 0.6 µg/mL; in data set [1] (SGF), 1.5 µg/mL.
